According to ChEMBL document CHEMBL5247625, “Discovery and characterization of novel potent BCR-ABL degraders by conjugating allosteric inhibitor” (Eur J Med Chem, 2022):
Calls of active or inactive are those of the source. The rule behind the calls is not given here.

How the values were obtained:
[1] = test system: Protein cereblon/Tyrosine-protein kinase ABL1/Breakpoint cluster region protein (Mus musculus), P00519+P11274+Q8C7D2 [K294E]; assay: Protac activity at CRBN/asciminib resistance BCR-ABL K294E mutant in mouse 32D cells assessed as increase in BCR-ABL degradation at 1 to 1000 nM by Western blotting analysis; assay type: cell-based; conditions: dose 1-1000 nM
K562 [2] = assay: Down regulation of IKZF3 expression in human K562 cells at 100 nM measured after 16 hrs by LC-MS analysis; assay type: functional, cell-based
[3] = test system: Protein cereblon/Tyrosine-protein kinase ABL1/Breakpoint cluster region protein (Mus musculus), P00519+P11274+Q8C7D2 [P223S]; assay: Protac activity at CRBN/asciminib resistance BCR-ABL P223S mutant in mouse 32D cells assessed as increase in BCR-ABL degradation at 1 to 1000 nM by Western blotting analysis; assay type: cell-based; conditions: dose 1-1000 nM
[4] = Apparent permeability in human Caco-2 cells incubated for 120 mins by LC-MS/MS analysis; assay type: ADME, cell-based; conditions: caco-2, 2 h
[5] = test system: Protein cereblon/Tyrosine-protein kinase ABL1/Breakpoint cluster region protein (Mus musculus), P00519+P11274+Q8C7D2 [V468F]; assay: Protac activity at CRBN/BCR-ABL V468F mutant in mouse 32D cells assessed as increase in BCR-ABL degradation at 1 to 1000 nM by Western blotting analysis; assay type: cell-based; conditions: dose 1-1000 nM
[6] = target: T1, Protein cereblon/Tyrosine-protein kinase ABL1/Breakpoint cluster region protein (Homo sapiens, UniProt P00519+P11274+Q96SW2); assay: Protac activity at CRBN/BCR-ABL in human K562 cells assessed as increase in BCR-ABL degradation at 5 nM by Western blotting analysis; assay type: cell-based
T1 sequence (P00519 whole entry, looked up): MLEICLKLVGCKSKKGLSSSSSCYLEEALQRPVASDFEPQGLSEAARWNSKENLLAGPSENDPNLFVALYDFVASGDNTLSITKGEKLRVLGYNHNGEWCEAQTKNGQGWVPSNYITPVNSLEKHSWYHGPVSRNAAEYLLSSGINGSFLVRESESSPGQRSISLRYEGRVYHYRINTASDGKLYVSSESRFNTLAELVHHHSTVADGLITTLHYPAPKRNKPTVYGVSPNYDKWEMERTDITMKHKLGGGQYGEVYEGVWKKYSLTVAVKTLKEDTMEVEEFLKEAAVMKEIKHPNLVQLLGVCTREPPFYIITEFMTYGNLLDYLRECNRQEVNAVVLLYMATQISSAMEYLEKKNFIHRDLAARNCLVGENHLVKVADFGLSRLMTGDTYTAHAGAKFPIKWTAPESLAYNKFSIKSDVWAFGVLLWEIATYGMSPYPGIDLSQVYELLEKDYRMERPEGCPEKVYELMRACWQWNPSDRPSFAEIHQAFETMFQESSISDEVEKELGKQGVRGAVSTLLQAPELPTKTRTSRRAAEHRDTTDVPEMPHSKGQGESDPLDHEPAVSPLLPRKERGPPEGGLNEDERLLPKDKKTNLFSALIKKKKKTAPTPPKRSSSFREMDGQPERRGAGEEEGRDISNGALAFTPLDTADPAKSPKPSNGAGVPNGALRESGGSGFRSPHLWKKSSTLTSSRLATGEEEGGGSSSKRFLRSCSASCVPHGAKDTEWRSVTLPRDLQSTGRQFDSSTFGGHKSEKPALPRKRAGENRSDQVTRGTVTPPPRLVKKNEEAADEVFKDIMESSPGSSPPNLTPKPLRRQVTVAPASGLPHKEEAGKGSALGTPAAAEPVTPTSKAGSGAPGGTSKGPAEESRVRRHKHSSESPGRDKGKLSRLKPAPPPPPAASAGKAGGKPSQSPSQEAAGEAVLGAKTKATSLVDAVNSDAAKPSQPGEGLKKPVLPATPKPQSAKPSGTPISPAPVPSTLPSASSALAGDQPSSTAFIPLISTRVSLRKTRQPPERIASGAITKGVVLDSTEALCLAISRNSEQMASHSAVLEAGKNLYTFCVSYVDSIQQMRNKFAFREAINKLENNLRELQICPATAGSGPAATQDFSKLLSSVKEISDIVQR
T1 sequence (P11274 whole entry, looked up): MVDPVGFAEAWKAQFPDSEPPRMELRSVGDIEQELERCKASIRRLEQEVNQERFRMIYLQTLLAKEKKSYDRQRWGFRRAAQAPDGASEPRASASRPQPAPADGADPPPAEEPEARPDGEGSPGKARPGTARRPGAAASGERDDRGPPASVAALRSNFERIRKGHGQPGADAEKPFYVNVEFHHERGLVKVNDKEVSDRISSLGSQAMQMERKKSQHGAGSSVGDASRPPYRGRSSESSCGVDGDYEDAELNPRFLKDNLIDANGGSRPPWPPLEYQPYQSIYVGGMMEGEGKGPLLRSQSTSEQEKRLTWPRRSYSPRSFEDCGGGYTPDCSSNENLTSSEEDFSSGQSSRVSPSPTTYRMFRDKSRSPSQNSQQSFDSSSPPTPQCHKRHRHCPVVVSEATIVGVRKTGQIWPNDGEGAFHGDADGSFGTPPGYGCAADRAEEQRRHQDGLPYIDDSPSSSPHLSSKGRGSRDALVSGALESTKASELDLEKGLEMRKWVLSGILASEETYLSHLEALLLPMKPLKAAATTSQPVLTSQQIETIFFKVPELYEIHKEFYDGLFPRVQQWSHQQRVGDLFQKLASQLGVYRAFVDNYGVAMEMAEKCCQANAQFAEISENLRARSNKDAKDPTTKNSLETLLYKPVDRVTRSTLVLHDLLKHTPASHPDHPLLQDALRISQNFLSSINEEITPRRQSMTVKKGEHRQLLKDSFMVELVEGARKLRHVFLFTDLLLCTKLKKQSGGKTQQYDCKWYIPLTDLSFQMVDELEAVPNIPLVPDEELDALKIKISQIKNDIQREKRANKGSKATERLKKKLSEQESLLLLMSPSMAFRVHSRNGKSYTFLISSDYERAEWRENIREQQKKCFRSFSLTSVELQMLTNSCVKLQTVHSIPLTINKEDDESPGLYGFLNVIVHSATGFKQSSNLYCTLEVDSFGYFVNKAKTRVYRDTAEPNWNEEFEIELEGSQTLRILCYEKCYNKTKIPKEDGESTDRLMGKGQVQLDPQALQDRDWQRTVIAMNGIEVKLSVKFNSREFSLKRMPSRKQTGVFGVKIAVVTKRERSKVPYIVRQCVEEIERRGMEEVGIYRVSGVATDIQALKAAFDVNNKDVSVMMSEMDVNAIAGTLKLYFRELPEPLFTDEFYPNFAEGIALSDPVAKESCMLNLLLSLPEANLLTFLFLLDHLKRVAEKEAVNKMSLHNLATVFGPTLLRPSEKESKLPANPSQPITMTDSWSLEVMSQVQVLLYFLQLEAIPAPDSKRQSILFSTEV
T1 sequence (Q96SW2 whole entry, looked up): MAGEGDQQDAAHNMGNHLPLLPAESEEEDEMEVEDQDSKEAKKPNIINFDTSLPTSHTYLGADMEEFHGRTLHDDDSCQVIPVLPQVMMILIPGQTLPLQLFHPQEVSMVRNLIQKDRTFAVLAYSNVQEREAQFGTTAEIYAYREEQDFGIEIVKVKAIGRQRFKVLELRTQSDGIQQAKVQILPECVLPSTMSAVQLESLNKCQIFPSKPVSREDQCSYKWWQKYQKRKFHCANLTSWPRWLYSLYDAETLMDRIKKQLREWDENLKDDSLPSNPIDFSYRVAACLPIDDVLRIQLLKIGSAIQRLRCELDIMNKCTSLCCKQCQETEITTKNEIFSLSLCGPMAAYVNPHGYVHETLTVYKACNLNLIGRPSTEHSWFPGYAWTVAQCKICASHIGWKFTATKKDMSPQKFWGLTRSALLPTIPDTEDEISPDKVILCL

K562 [7] = assay: cells; conditions: Homo sapiens, K562, 48 h
Description: Antiproliferative activity against human K562 cells assessed as inhibition of cell growth incubated for 2 days by CCK8 assay

[8] = test system: Protein cereblon/Tyrosine-protein kinase ABL1/Breakpoint cluster region protein (Mus musculus), P00519+P11274+Q8C7D2 [Y253H/E255V]; assay: Protac activity at CRBN/BCR-ABL Y253H/E255V double mutant in mouse 32D cells assessed as increase in p-BCR-ABL degradation at 1 to 1000 nM by Western blotting analysis; assay type: cell-based; conditions: dose 1-1000 nM
[9] = target: T1, Protein cereblon/Tyrosine-protein kinase ABL1/Breakpoint cluster region protein; assay: Protac activity at CRBN/BCR-ABL in human K562 cells assessed as induction of c-ABL degradation at 100 nM pretreated with asciminib for 2 hrs followed by compound addition measured after 8 hrs by Western blotting analysis; assay type: cell-based; conditions: time 10.0 hrs
[10] = target: T1, Protein cereblon/Tyrosine-protein kinase ABL1/Breakpoint cluster region protein; assay: Protac activity at CRBN/BCR-ABL in human K562 cells assessed as induction of c-ABL degradation at 100 nM pretreated with lenalidomide for 2 hrs followed by compound addition measured after 8 hrs by Western blotting analysis; assay type: cell-based; conditions: time 10.0 hrs
[11] = test system: Protein cereblon/Tyrosine-protein kinase ABL1/Breakpoint cluster region protein (Mus musculus), P00520+Q6PAJ1+Q8C7D2 [E255V]; assay: Protac activity at CRBN/BCR-ABL E255V mutant in mouse 32D cells assessed as increase in BCR-ABL degradation at 1 to 1000 nM by Western blotting analysis; assay type: cell-based; conditions: dose 1-1000 nM
[12] = target: T2, Signal transducer and activator of transcription 5A (Homo sapiens) (UniProt P42229); assay: Inhibition of STAT5 phosphorylation at Tyr694 residue in human K562 cells at 100 nM incubated for 6 hrs followed by compound washout measured upto 96 hrs by Western blotting analysis; assay type: cell-based
T2 sequence (whole entry): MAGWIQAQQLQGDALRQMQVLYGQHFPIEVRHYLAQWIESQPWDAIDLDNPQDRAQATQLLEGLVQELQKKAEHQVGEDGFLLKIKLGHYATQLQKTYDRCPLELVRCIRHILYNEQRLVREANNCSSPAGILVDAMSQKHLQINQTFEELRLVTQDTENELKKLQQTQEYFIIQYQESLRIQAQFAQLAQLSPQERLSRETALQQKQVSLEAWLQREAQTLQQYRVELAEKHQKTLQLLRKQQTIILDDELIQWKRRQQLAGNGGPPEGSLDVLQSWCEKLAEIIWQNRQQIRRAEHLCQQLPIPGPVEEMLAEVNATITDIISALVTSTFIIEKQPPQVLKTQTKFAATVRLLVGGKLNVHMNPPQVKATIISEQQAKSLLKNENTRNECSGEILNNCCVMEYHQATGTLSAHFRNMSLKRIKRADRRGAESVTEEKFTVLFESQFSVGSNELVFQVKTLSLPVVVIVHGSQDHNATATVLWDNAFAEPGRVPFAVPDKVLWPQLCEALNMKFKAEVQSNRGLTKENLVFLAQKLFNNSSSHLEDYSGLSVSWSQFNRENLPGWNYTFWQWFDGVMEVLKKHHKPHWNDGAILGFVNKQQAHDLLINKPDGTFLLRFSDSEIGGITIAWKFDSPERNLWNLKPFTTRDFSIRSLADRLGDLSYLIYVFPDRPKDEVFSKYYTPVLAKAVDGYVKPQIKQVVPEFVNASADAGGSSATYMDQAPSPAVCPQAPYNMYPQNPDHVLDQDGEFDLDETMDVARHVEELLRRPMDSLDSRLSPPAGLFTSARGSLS

[13] = target: T3, Bcr/Abl fusion protein (Homo sapiens) (UniProt P00519+P11274); assay: Inhibition of BCR-ABL phosphorylation at Tyr245 residue in human K562 cells at 100 nM incubated for 6 hrs followed by compound washout measured upto 96 hrs by Western blotting analysis; assay type: cell-based
T3 sequence (P00519 whole entry, looked up, the tested form may be a part): as the sequence (P00519 whole entry, looked up) above
T3 sequence (P11274 whole entry, looked up, the tested form may be a part): as the sequence (P11274 whole entry, looked up) above

[14] = target: T3, Bcr/Abl fusion protein (Homo sapiens); assay: Inhibition of BCR-ABL phosphorylation at Tyr245 residue in human K562 cells at 100 nM by Western blotting analysis; assay type: cell-based; conditions: time <= 18.0 hrs, TDE = time-dependent effect
[15] = target: T3, Bcr/Abl fusion protein (Homo sapiens); assay: Inhibition of BCR-ABL phosphorylation at Tyr245 residue in human K562 cells at 0.3 to 100 nM incubated for 16 hrs by Western blotting analysis; assay type: cell-based; conditions: dose 0.3-100 nM
[16] = target: Crk-like protein (Homo sapiens) (UniProt P46109); assay: Inhibition of CRKL phosphorylation at Tyr207 residue in human K562 cells at 100 nM by Western blotting analysis; assay type: cell-based; conditions: time <= 18.0 hrs, TDE = time-dependent effect
Chain of Crk-like protein (Homo sapiens) (P46109 whole entry): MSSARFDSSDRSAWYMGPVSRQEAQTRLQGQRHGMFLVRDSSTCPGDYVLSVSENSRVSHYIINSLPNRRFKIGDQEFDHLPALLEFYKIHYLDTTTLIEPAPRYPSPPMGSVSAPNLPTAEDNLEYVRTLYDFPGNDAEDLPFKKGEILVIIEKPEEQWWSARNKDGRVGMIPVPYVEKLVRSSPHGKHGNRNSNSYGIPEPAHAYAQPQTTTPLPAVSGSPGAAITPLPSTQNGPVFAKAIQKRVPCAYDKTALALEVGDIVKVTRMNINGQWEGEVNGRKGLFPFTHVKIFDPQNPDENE

[17] = target: T1, Protein cereblon/Tyrosine-protein kinase ABL1/Breakpoint cluster region protein; assay: Protac activity at CRBN/BCR-ABL in human K562 cells assessed as increase in BCR-ABL degradation at 100 nM incubated for 6 hrs by Western blotting analysis; assay type: cell-based
[18] = target: T1, Protein cereblon/Tyrosine-protein kinase ABL1/Breakpoint cluster region protein; assay: Protac activity at CRBN/BCR-ABL in human K562 cells assessed as induction of BCR-ABL degradation at 100 nM by Western blotting analysis; assay type: cell-based; conditions: time 4.0 hrs, TDE = time-dependent effect
[19] = target: T1, Protein cereblon/Tyrosine-protein kinase ABL1/Breakpoint cluster region protein; assay: Protac activity at CRBN/BCR-ABL in human K562 cells assessed as increase in BCR-ABL degradation at 100 nM by Western blotting analysis; assay type: cell-based
[20] = target: T1, Protein cereblon/Tyrosine-protein kinase ABL1/Breakpoint cluster region protein; assay: Protac activity at CRBN/BCR-ABL in human K562 cells assessed as induction of c-ABL degradation at 100 nM pretreated with MLN4924 for 2 hrs followed by compound addition measured after 8 hrs by Western blotting analysis; assay type: cell-based; conditions: time 10.0 hrs
[21] = target: T1, Protein cereblon/Tyrosine-protein kinase ABL1/Breakpoint cluster region protein; assay: Protac activity at CRBN/BCR-ABL in human K562 cells assessed as induction of BCR-ABL degradation at 100 nM pretreated with asciminib for 2 hrs followed by compound addition measured after 8 hrs by Western blotting analysis; assay type: cell-based; conditions: time 10.0 hrs

## O=C1CCC(N2Cc3c(SCCCCCCN4CCN(C5CCN(c6ncc(C(=O)Nc7ccc(OC(F)(F)Cl)cc7)cc6-c6ccn[nH]6)CC5)CC4)cccc3C2=O)C(=O)N1 (stereo unspecified)
[1]
  Activity: Active
K562 [2]
  Activity: Active
[3]
  Activity: Active
[4]
  Papp: Impermeable
[5]
  Activity: inactive
[6]
  Activity: 81.8%
K562 [7]
  IC50: 0.012 µM
[8]
  Activity: Active
[9]
  Activity: inactive
[10]
  Activity: inactive
[11]
  Activity: Active
[12]
  inhibition: inactive
[13]
  inhibition: inactive
[14]
  inhibition: Tde
[15]
  inhibition: Active
[16]
  inhibition: Tde
[17]
  Activity: Active
[18]
  Activity: Tde
[19]
  Activity: 91.2%
[20]
  Activity: inactive
[21]
  Activity: inactive
